According to PMC7250851, “Discovery of a new sialic acid binding region that regulates Siglec-7” (Scientific Reports, 2020):
Entries after “also recorded” stand apart in the source; their conditions may differ.

Key:
[1] = biological target: T1, GD3-Siglec-7EcFc interaction (Homo sapiens, UniProt Q9Y286); test: Inhibition of GD3-Siglec-7EcFc binding (ELISA, double reciprocal plots); conditions: for Inhibition type: double reciprocal plots
T1 construct: the extracellular domain of Siglec-7 fused with the human IgG1 Fc region; made in house
Description: (§1) For ganglioside binding assay, 96-well plates (Nunc, Roskilde, Denmark) were coated with 50 μL/well of 0–6.0 µM ganglioside in ethanol and left to air dry overnight or at 37 °C for 2 h. The wells were washed three times with TBS and blocked with 1% BSA (w/v) in TBS. Siglec-7-Fc fusion protein (64 pmol/mL) was pre-complexed with a 1/1000 dilution of horseradish peroxidase-conjugated goat anti-human IgG + M + A (American Qualex) for 30 min at room temperature, and 50 μL of reaction mixture was added to each well. After 2 h incubation at room temperature, the wells were washed extensively, then 100 µL of 0.05% o-phenylenediamine in 0.1 M Tris-HCl (pH 6.8) containing 0.006% H2O2 was added and incubated at room temperature. The absorbance was then measured at 490 nm (Bio-Rad, Hercules, CA) after the addition of 100 µL of 2 N sulphuric acid. For measurement of the inhibition toward GD3-Siglec-7 interaction, inhibitors (0–200 μM for octyl-α2,8-mono/di/tri/teraSia, 0–50 μM for tetradecyl-ganglioside glycan), Siglec-7, and peroxidase conjugated anti-human IgG + IgM + IgA were pre-incubated at 25 °C for 30 min, and the reaction mixture with or without inhibitor was used as described above. All experiments were performed three times.

Siglec-7EcFc (WT) = system: T2, Siglec-7EcFc (WT); test: ELISA binding of Siglec-7EcFc to immobilised gangliosides / (Neu5Ac)n-PE; set-up: species or system human; conditions: ligand coated on plastic wells
T2 construct: the extracellular domain of Siglec-7 fused with the human IgG1 Fc region; made in house
Description: as §1

Siglec-7V R124A = system: T3, Siglec-7V R124A; test: STD-NMR and 1H-NMR titration; type: binding, human; conditions: protein:ligand 1:20, 10 °C, pH 7.9
T3 construct: DNA fragments encoding human Siglec-7 V-set domain (residues 18–144) and the mutants were sub-cloned into the pCold-PDI vector; (His)6-PDI (cleaved yes); made in house; host or cells: Escherichia coli Origami B (DE3)
Description: (§2) Recombinant human Siglec-7 V-set domain and its mutants (R67A, R124A, R67K) were prepared using the pCold-PDI vector as previously described with modifications. DNA fragments encoding human Siglec-7 V-set domain (residues 18–144) and the mutants were sub-cloned into the pCold-PDI vector. The plasmids were transformed into Escherichia coli Origami B (DE3) (Novagen), and the cells were grown at 37 °C in LB medium. After induction with isopropyl β-D-thiogalactoside (0.5 mM), the cells were cultured at 15 °C for further 16 h. Then the cells were harvested and sonicated in 20 mM Tris-HCl (pH 8.0), and containing 0.1 M NaCl and 0.1 mM EDTA. After centrifugation, the supernatant containing (His)6-PDI-fused protein was collected and applied to a Ni sepharose column (GE healthcare) equilibrated with 20 mM Tris-HCl (pH 8.0), and containing 0.1 M NaCl. After washing with 20 mM Tris-HCl (pH 8.0) containing 0.1 M NaCl and 20 mM imidazole, the protein was eluted with 20 mM Tris-HCl (pH 8.0) containing 0.1 M NaCl and 500 mM imidazole. The (His)6-PDI-fused protein was extensively dialysed against 50 mM Tris-HCl (pH 8.0) containing 0.1 M NaCl, 5 mM reduced glutathione, 0.5 mM oxidised glutathione, and 10% glycerol. The protein was then digested with TEV protease to remove the (His)6-PDI tag. The digested proteins were passed through the Ni sepharose column and the final purification was performed with a Hiroad Superdex 75 pg size exclusion column (GE healthcare) equilibrated with 20 mM Tris-HCl (pH 8.0) containing 0.1 M NaCl.
(§3) NMR spectra were collected using the DRX-600 (600 MHz) spectrometer (Bruker; Billerica, MA, US) equipped with a TXI-probe. The probe temperature was set at 283 K. Siglec-7 V-set domains (WT, R124A, R67A) were prepared with 10 mM phosphate buffer including 150 mM NaCl in D2O (D: 99%). The final protein concentration before addition of the ligand was 55 μM (pH 7.9). The 5.5 mM diSia and triSia solutions (pH 7.9) in PBS were gradually added into the protein solution to achieve the protein:ligand molar ratios of 1:0, 1:1, 1:2, 1:5, 1:10, and 1:20; the ^1H-NMR spectra were obtained with the WATERGATE pulse sequence in each protein:ligand ratio. Data were collected for 1024 scans by suppressing the residual HDO signal to 3-9-19 pulse train. Saturation Transfer Difference (STD) NMR experiments were performed at the protein:ligand ratio of 1:20. The protein signal was saturated on resonance at 0.15 ppm and off resonance at 40 ppm with a cascade of 60 selective Gaussian shaped pulses of 50 ms duration and 3 s saturation in total. The WATERGATE pulse sequence was used to suppress the residual HDO signal, and a spin-lock filter with a strength of 8 kHz and a duration of 10 ms was applied to suppress protein background signal. All STD NMR experiments were collected for 1024 scans with an inter pulse delay of 100 μs. The Sias signal assignments have been previously described by Jennings et al.[34].

Siglec-7V R67A = system: T4, Siglec-7V R67A; test: STD-NMR and 1H-NMR titration; type: binding, human; conditions: protein:ligand 1:20, 10 °C, pH 7.9
T4 construct: DNA fragments encoding human Siglec-7 V-set domain (residues 18–144) and the mutants were sub-cloned into the pCold-PDI vector; (His)6-PDI (cleaved yes); made in house; host or cells: Escherichia coli Origami B (DE3)
Description: as §2, §3

Siglec-7V WT = system: T5, Siglec-7V WT; test: STD-NMR and 1H-NMR titration; type: binding, human; conditions: protein:ligand 1:20, 10 °C, pH 7.9
T5 construct: DNA fragments encoding human Siglec-7 V-set domain (residues 18–144) and the mutants were sub-cloned into the pCold-PDI vector; (His)6-PDI (cleaved yes); made in house; host or cells: Escherichia coli Origami B (DE3)
Description: as §2, §3

Siglec-7EcFc (R67A) = system: T6, Siglec-7EcFc (R67A); test: ELISA binding of Siglec-7EcFc to immobilised gangliosides / (Neu5Ac)n-PE; set-up: species or system human; conditions: ligand coated on plastic wells, compared with WT
T6 construct: the extracellular domain of Siglec-7 fused with the human IgG1 Fc region; made in house
Description: as §1

Siglec-7EcFc (R67K) = system: T7, Siglec-7EcFc (R67K); test: as above; set-up: species or system human; conditions: ligand coated on plastic wells, compared with WT
T7 construct: the extracellular domain of Siglec-7 fused with the human IgG1 Fc region; made in house
Description: as §1

Siglec-7EcFc (R92A) = system: T8, Siglec-7EcFc (R92A); test: as above; set-up: species or system human; conditions: ligand coated on plastic wells, compared with WT
T8 construct: the extracellular domain of Siglec-7 fused with the human IgG1 Fc region; made in house
Description: as §1

Siglec-7EcFc (R92K) = system: T9, Siglec-7EcFc (R92K); test: as above; set-up: species or system human; conditions: ligand coated on plastic wells, compared with WT
T9 construct: the extracellular domain of Siglec-7 fused with the human IgG1 Fc region; made in house
Description: as §1

T1 sequence (Q9Y286 19-353 limits assumed): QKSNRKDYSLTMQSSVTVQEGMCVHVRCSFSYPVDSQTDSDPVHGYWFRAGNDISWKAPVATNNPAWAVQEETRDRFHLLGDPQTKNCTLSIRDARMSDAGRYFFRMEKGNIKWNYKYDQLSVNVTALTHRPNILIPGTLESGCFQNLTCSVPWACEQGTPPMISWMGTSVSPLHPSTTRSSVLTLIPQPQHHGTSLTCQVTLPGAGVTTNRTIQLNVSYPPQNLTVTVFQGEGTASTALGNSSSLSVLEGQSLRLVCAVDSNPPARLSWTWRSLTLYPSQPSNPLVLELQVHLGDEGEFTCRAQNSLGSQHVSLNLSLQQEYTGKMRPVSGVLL

Compound | Inhibition type [1] | binding activity (ELISA) (Siglec-7EcFc (WT)) | binding in solution (STD-NMR) (Siglec-7V R124A) | binding in solution (STD-NMR) (Siglec-7V R67A) | binding in solution (STD-NMR) (Siglec-7V WT) | also measured
CCCCCCCCOC1(C(=O)O)CC(O)C(NC(C)=O)C(C(O)C(CO)OC2(C(=O)O)CC(O)C(NC(C)=O)C(C(O)C(O)CO)O2)O1 (stereo not drawn) [α2,8-diSia] | competitive inhibition |  |  |  |  | inhibition activity toward Siglec-7EcFc-GD3 interaction ([1]; octyl glycosides, 0–200 μM): the effect was weak
Neu5Aα2 → 3Galβ1 → 4Glc-Cer [GM3] |  | Almost no binding activity |  |  |  | 
CC(=O)NC1C(O)CC(OC(CO)C(O)C2OC(OC(CO)C(O)C3OC(O)(C(=O)O)CC(O)C3NC(C)=O)(C(=O)O)CC(O)C2NC(C)=O)(C(=O)O)OC1C(O)C(O)CO (stereo not shown) [triSia, Neu5Acα(2-8)Neu5Acα(2-8)Neu5Ac-OH] |  |  | very little or no interactions | involved in binding | involved in binding | 
Neu5Acα2 → 8Neu5Aα2 → 3Galβ1 → 4Glc-Cer [GD3] |  | higher binding activity |  |  |  | binding activity (ELISA) (Siglec-7EcFc (R67A)): significantly lower binding activity; also recorded: did not effectively bind; binding activity (ELISA) (Siglec-7EcFc (R67K)): significantly lower binding activity; binding activity (ELISA) (Siglec-7EcFc (R92A)): almost the same binding activity; binding activity (ELISA) (Siglec-7EcFc (R92K)): almost the same binding activity
CCCCCCCCOC1(C(=O)O)CC(O)C(NC(C)=O)C(C(O)C(CO)OC2(C(=O)O)CC(O)C(NC(C)=O)C(C(O)C(CO)OC3(C(=O)O)CC(O)C(NC(C)=O)C(C(O)C(O)CO)O3)O2)O1 (stereo not drawn) [α2,8-triSia] | non-competitive inhibition |  |  |  |  | IC50 ([1]; octyl glycosides, 0–200 μM, GD3-coated plate): < 100 µM
CC(=O)NC1C(O)CC(OC(CO)C(O)C2OC(O)(C(=O)O)CC(O)C2NC(C)=O)(C(=O)O)OC1C(O)C(O)CO (stereo not shown) [diSia, Neu5Acα(2-8)Neu5Ac-OH] |  |  | very little or no interactions | obviously recognised | obviously recognised | 
